Laboratory results published in patent US20100248390A1, “COMPOSITIONS AND METHODS FOR IDENTIFYING LIGANDS OF ODORANT RECEPTORS” (DUKE UNIVERSITY, priority 2009, published 2010).

Key:
[1] = molecular target: T1, mouse odorant receptors (ORs) (Mus musculus, UniProt Q9JHB2); experiment: CRE-luciferase assay of odorant receptor activation (Dual-Glo, Hana3A cells, RTP1S), dose-response EC50; assay type: cell-based; conditions: receptor MOR140-1
T1 construct: OR open reading frames were amplified from genomic DNA; expressed in transfected cells; host or cells: Hana3A cells, co-transfected with RTP1S, CRE-luciferase and pRL-SV40
T1 sequence (Q9JHB2 1-309): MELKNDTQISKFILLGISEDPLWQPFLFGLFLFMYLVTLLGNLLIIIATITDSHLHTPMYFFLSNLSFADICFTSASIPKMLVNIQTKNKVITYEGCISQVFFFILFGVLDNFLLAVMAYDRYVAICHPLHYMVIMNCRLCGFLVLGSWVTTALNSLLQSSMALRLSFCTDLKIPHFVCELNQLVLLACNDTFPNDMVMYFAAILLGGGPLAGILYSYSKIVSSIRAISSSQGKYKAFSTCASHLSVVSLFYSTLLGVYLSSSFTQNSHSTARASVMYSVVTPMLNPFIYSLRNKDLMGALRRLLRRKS

[2] = molecular target: T2, mouse odorant receptors (ORs) (Mus musculus, UniProt Q8VGS3); experiment: as above; assay type: cell-based; conditions: receptor MOR180-1; read-out: log EC50 of odorant at MOR180-1 (0 = no response) (converted)
T2 construct: OR open reading frames were amplified from genomic DNA; expressed in transfected cells; host or cells: Hana3A cells, co-transfected with RTP1S, CRE-luciferase and pRL-SV40
T2 sequence (Q8VGS3 1-310): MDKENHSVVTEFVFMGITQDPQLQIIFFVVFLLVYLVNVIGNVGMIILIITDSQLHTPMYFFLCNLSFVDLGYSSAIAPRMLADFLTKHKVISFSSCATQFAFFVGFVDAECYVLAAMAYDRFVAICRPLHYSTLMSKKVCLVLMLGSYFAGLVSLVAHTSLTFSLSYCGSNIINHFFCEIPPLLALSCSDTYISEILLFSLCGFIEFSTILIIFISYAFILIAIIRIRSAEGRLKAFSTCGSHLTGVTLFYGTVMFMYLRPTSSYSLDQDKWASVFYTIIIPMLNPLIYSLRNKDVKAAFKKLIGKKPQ

log EC50 (Table 4 value), MOR140-1 [1]	EC50 [2] [µM]	SMILES
−3.614	–	CCCCCC1=C(C)CCC1=O [Dihydroiasmone]
–	661	CC(=O)Oc1ccccc1 [Phenyl acetate]
